# Patent publication US9499535B2, “Kinase inhibitors” (ORIGENIS GMBH, priority 2011, dated 2016)
# pIC50, pKi: −log10 of the molar value.
# How the values were obtained:
# SYK kinase = biological target: T1, SYK kinase (Homo sapiens, UniProt P43405); assay: SYK assay (OMNIA Kinase Assay, Invitrogen); assay type: biochemical; settings: apparent Ki calculated from the IC50 using the Cheng-Prusoff equation; 1 mM ATP, 10 μM Peptide Substrate; read-out: SYK Activities: Ki
# T1 construct: purchased Invitrogen, Carlsbad
# Summary of the method: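 Continuous SOX-fluorescence (Omnia) readout of Tyr 7 peptide (10 μM) phosphorylation with 1 mM ATP and 0.2 mM DTT at 30° C, started by SYK addition. Fluorescence (λex 360/λem 485 nm) was read every 30 s for 30 min. IC50 from velocity vs concentration; apparent Ki via Cheng-Prusoff.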
# LRRK2 = LRRK2 (Homo sapiens, UniProt Q5S007); assay: LRRK2 assay (LanthaScreen Eu Kinase Binding Assay); settings: 5 nM LRRK2, 10 nM tracer 236, RT 1 h; read-out: LRRK2 Activites: IC50
# Source text: Binding of the tracer to the kinase is detected using a europium-labeled anti-tag antibody, which binds to the kinase of interest. […] Binding of an inhibitor to the kinase competes for binding with the tracer, resulting in a loss of FRET. The fluorescence intensity ratio is directly proportional to the amount of peptide phosphorylation.
# The inhibitor concentration was plotted versus the emission ratio to determine the IC50 using XLFit 5.0 (IDBS, Guildford) to fit to a sigmoidal dose response curve with a variable slope.
# Chain of LRRK2 (Q5S007 970-2527 limits assumed): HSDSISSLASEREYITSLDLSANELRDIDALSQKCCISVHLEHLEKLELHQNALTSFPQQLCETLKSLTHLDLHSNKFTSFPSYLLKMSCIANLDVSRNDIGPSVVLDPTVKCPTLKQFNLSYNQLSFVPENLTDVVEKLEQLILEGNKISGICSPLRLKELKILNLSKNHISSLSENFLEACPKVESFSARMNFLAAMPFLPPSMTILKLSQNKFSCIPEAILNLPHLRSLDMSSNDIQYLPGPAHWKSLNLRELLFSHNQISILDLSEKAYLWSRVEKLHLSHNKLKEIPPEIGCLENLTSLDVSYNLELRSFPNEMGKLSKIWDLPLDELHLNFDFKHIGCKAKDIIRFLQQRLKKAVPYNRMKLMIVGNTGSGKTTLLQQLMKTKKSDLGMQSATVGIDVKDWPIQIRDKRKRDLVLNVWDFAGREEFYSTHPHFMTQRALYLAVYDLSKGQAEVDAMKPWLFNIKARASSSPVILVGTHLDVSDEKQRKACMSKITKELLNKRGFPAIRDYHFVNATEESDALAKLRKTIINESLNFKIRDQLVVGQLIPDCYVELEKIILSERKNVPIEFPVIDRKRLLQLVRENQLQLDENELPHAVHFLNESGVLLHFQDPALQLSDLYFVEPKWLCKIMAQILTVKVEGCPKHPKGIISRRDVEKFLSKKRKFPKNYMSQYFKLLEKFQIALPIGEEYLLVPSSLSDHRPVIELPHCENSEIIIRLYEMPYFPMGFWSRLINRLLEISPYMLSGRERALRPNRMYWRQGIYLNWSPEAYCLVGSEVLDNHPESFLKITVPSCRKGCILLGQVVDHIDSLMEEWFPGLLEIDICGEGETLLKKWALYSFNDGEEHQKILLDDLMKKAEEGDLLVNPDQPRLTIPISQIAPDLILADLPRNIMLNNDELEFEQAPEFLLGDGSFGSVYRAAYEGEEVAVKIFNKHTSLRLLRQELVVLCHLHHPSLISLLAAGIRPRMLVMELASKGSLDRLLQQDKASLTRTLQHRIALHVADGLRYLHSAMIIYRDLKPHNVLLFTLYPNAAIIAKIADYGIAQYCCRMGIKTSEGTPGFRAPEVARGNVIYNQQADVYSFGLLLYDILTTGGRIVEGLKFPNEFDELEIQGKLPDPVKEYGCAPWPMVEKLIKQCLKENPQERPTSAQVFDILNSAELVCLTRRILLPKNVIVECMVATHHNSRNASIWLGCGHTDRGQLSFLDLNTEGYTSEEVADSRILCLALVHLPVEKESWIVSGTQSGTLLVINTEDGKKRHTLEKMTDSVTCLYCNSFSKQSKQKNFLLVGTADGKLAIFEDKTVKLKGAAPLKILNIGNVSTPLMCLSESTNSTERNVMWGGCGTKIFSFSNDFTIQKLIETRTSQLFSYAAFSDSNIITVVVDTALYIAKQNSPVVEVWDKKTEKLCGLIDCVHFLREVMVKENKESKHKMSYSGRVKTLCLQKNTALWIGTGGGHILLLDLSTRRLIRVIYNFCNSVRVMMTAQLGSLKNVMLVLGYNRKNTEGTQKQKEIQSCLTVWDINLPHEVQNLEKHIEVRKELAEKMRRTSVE
pKi (SYK kinase),pIC50 (LRRK2),Structure (SMILES)
> 8.00,7.00 to 8.00,"COc1ccc2nc(Nc3cc(C4CC4)[nH]n3)c3[nH]ncc3c2c1 [Example #97, (5-Cyclopropyl-1H-pyrazol-3-yl)-(8-methoxy-3H-pyrazolo[3,4-c]quinolin-4-yl)-amine]"
7.00 to 8.00,6.00 to 7.00,"COc1ccc2nc(Nc3ccc4c(c3)OCO4)c3n[nH]cc3c2c1 [Example #100, Benzo[1,3]dioxol-5-yl-(8-methoxy-2H-pyrazolo[3,4-c]quinolin-4-yl)-amine]"
7.00 to 8.00,6.00 to 7.00,"COc1ccc2nc(Nc3ccc4c(c3)OCCO4)c3n[nH]cc3c2c1 [Example #101, (2,3-Dihydro-benzo[1,4]dioxin-6-yl)-(8-methoxy-2H-pyrazolo[3,4-c]quinolin-4-yl)-amine]"
7.00 to 8.00,6.00 to 7.00,"COc1ccc2nc(Nc3ccc(N4CCOCC4)nc3)c3[nH]ncc3c2c1 [Example #103, (8-Methoxy-3H-pyrazolo[3,4-c]quinolin-4-yl)-(6-morpholin-4-yl-pyridin-3-yl)-amine]"
7.00 to 8.00,6.00 to 7.00,"COCCOc1ccc(Nc2nc3ccc(OC)cc3c3cn[nH]c23)cc1 [Example #104, [4-(2-Methoxy-ethoxy)-phenyl]-(8-methoxy-3H-pyrazolo[3,4-c]quinolin-4-yl)-amine]"
7.00 to 8.00,6.00 to 7.00,"CCOc1ccc(Nc2nc3ccc(OC)cc3c3cn[nH]c23)cc1OC [Example #105, (4-Ethoxy-3-methoxy-phenyl)-(8-methoxy-3H-pyrazolo[3,4-c]quinolin-4-yl)-amine]"
6.00 to 7.00,6.00 to 7.00,COc1ccc2nc(Nc3ccc(N4CCCC4=O)cc3)c3[nH]ncc3c2c1 [Example #106]
7.00 to 8.00,6.00 to 7.00,"COc1ccc2nc(Nc3ccc(N4CCSCC4)cc3)c3[nH]ncc3c2c1 [Example #107, (8-Methoxy-3H-pyrazolo[3,4-c]quinolin-4-yl)-(4-thiomorpholin-4-yl-phenyl)-amine]"
6.00 to 7.00,6.00 to 7.00,"COc1ccc2nc(Nc3ccc4oc(=O)[nH]c4c3)c3[nH]ncc3c2c1 [Example #108, 5-(8-Methoxy-3H-pyrazolo[3,4-c]quinolin-4-ylamino)-3H-benzooxazol-2-one]"
7.00 to 8.00,7.00 to 8.00,"COc1ccc2nc(Nc3ccc4c(c3)NCCO4)c3[nH]ncc3c2c1 [Example #109, (3,4-Dihydro-2H-benzo[1,4]oxazin-6-yl)-(8-methoxy-3H-pyrazolo[3,4-c]quinolin-4-yl)-amine]"
7.00 to 8.00,7.00 to 8.00,"COc1ccc2nc(Nc3ccc(N4CCS(=O)(=O)CC4)cc3)c3n[nH]cc3c2c1 [Example #111, [4-(1,1-Dioxo-1lambda-6-thiomorpholin-4-yl)-phenyl]-(8-methoxy-3H-pyrazolo[3,4-c]quinolin-4-yl)-amine]"
7.00 to 8.00,6.00 to 7.00,"COc1ccc2nc(Nc3cccc(O)c3)c3[nH]ncc3c2c1 [Example #113, 3-(8-Methoxy-3H-pyrazolo[3,4-c]quinolin-4-ylamino)-phenol]"
6.00 to 7.00,6.00 to 7.00,"CCOc1ccc(Nc2nc3ccc(OC)cc3c3cn[nH]c23)cc1OCC [Example #114, (3,4-Diethoxy-phenyl)-(8-methoxy-3H-pyrazolo[3,4-c]quinolin-4-yl)-amine]"
7.00 to 8.00,6.00 to 7.00,"Brc1ccc2nc(Nc3ccc(N4CCOCC4)cc3)c3n[nH]cc3c2c1 [Example #115, (8-Bromo-2H-pyrazolo[3,4-c]quinolin-4-yl)-(4-morpholin-4-yl-phenyl)-amine]"
6.00 to 7.00,6.00 to 7.00,"COc1ccc2nc(Nc3ccc4[nH]c(=O)oc(=O)c4c3)c3n[nH]cc3c2c1 [Example #117, 6-(8-Methoxy-2H-pyrazolo[3,4-c]quinolin-4-ylamino)-1H-benzo[d][1,3]oxazine-2,4-dione]"
6.00 to 7.00,6.00 to 7.00,"Brc1ccc2nc(Nc3cc[nH]n3)c3n[nH]cc3c2c1 [Example #119, (8-Bromo-2H-pyrazolo[3,4-c]quinolin-4-yl)-(1H-pyrazol-3-yl)-amine]"
7.00 to 8.00,6.00 to 7.00,"COc1ccc2nc(Nc3ccc(F)c(OC)c3)c3n[nH]cc3c2c1 [Example #124, (4-Fluoro-3-methoxy-phenyl)-(8-methoxy-2H-pyrazolo[3,4-c]quinolin-4-yl)-amine]"
7.00 to 8.00,6.00 to 7.00,"COc1ccc2nc(Nc3ccc(OC)c(F)c3)c3n[nH]cc3c2c1 [Example #125, (3-Fluoro-4-methoxy-phenyl)-(8-methoxy-2H-pyrazolo[3,4-c]quinolin-4-yl)-amine]"
7.00 to 8.00,6.00 to 7.00,"COc1cc2nc(Nc3ccc(N(C)C)cc3)c3n[nH]cc3c2cc1OC [Example #135, N-(7,8-Dimethoxy-2H-pyrazolo[3,4-c]quinolin-4-yl)-N′,N′-dimethyl-benzene-1,4-diamine]"

pKi (SYK kinase),pIC50 (LRRK2),Structure (SMILES)
6.00 to 7.00,6.00 to 7.00,"COc1ccc2nc(Nc3ccc4c(c3)c(C)c(C)n4C)c3n[nH]cc3c2c1 [Example #138, (8-Methoxy-2H-pyrazolo[3,4-c]quinolin-4-yl)-(1,2,3-trimethyl-1H-indol-5-yl)-amine]"
7.00 to 8.00,6.00 to 7.00,"COc1cc2nc(Nc3ccc4c(c3)NCCO4)c3n[nH]cc3c2cc1OC [Example #151, (3,4-Dihydro-2H-benzo[1,4]oxazin-6-yl)-(7,8-dimethoxy-2H-pyrazolo[3,4-c]quinolin-4-yl)-amine]"
7.00 to 8.00,7.00 to 8.00,"COc1ccc2nc(Nc3ccc(Cc4ccncc4)cc3)c3n[nH]cc3c2c1 [Example #161, (8-Methoxy-2H-pyrazolo[3,4-c]quinolin-4-yl)-(4-pyridin-4-ylmethyl-phenyl)-amine]"
7.00 to 8.00,6.00 to 7.00,"COc1cccc2c1nc(Nc1ccc3c(c1)NCCO3)c1n[nH]cc12 [Example #168, (3,4-Dihydro-2H-benzo[1,4]oxazin-6-yl)-(6-methoxy-2H-pyrazolo[3,4-c]quinolin-4-yl)-amine]"
7.00 to 8.00,6.00 to 7.00,"COc1cccc2c1nc(Nc1ccc(N3CCOCC3)cc1)c1[nH]ncc12 [Example #170, (6-Methoxy-2H-pyrazolo[3,4-c]quinolin-4-yl)-(4-morpholin-4-yl-phenyl)-amine]"
7.00 to 8.00,6.00 to 7.00,"COc1ccc2c(c1)nc(Nc1ccc3c(c1)NCCO3)c1n[nH]cc12 [Example #173, (3,4-Dihydro-2H-benzo[1,4]oxazin-6-yl)-(7-methoxy-2H-pyrazolo[3,4-c]quinolin-4-yl)-amine]"
7.00 to 8.00,6.00 to 7.00,"COc1ccc2c(c1)nc(Nc1ccc(OC)c(OC)c1)c1n[nH]cc12 [Example #175, (3,4-Dimethoxy-phenyl)-(7-methoxy-2H-pyrazolo[3,4-c]quinolin-4-yl)-amine]"
> 8.00,6.00 to 7.00,"COc1ccc2c(c1)nc(Nc1ccc(N3CCOCC3)cc1)c1n[nH]cc12 [Example #177, (7-Methoxy-2H-pyrazolo[3,4-c]quinolin-4-yl)-(4-morpholin-4-yl-phenyl)-amine]"
7.00 to 8.00,6.00 to 7.00,"COc1ccc2nc(Nc3ccc(N4CCOCC4)c(F)c3)c3n[nH]cc3c2c1 [Example #181, (3-Fluoro-4-morpholin-4-yl-phenyl)-(8-methoxy-2H-pyrazolo[3,4-c]quinolin-4-yl)-amine]"
7.00 to 8.00,6.00 to 7.00,"COc1ccc2nc(Nc3ccc4c(c3)n(C)c(=O)n4C)c3n[nH]cc3c2c1 [Example #189, 5-(8-Methoxy-2H-pyrazolo[3,4-c]quinolin-4-ylamino)-1,3-dimethyl-1,3-dihydro-benzoimidazol-2-one]"
7.00 to 8.00,6.00 to 7.00,"COc1ccc2nc(Nc3ccc4c(c3)NCCC4)c3n[nH]cc3c2c1 [Example #196, (8-Methoxy-2H-pyrazolo[3,4-c]quinolin-4-yl)-(1,2,3,4-tetrahydro-quinolin-7-yl)-amine]"
6.00 to 7.00,7.00 to 8.00,"COc1cccc2nc(Nc3ccc4c(c3)NCCO4)c3n[nH]cc3c12 [Example #198, (3,4-Dihydro-2H-benzo[1,4]oxazin-6-yl)-(9-methoxy-2H-pyrazolo[3,4-c]quinolin-4-yl)-amine]"
6.00 to 7.00,6.00 to 7.00,"COc1ccc(Nc2nc3cccc(OC)c3c3c[nH]nc23)cc1OC [Example #200, (3,4-Dimethoxy-phenyl)-(9-methoxy-2H-pyrazolo[3,4-c]quinolin-4-yl)-amine]"
7.00 to 8.00,6.00 to 7.00,"COc1ccc(Nc2nc3ccccc3c3c(C)[nH]nc23)cc1OC [Example #207, (3,4-Dimethoxy-phenyl)-(1-methyl-2H-pyrazolo[3,4-c]quinolin-4-yl)-amine]"
7.00 to 8.00,6.00 to 7.00,"COc1ccc(Nc2nc3ccc(C#N)cc3c3c[nH]nc23)cc1OC [Example #216, 4-(3,4-Dimethoxy-phenylamino)-2H-pyrazolo[3,4-c]quinoline-8-carbonitrile]"
7.00 to 8.00,6.00 to 7.00,"COc1ccc2nc(Nc3ccc4c(c3)OCC(=O)N4)c3[nH]ncc3c2c1 [Example #224, 7-(8-Methoxy-3H-pyrazolo[3,4-c]quinolin-4-ylamino)-4H-benzo[1,4]oxazin-3-one]"
7.00 to 8.00,6.00 to 7.00,"COc1ccc2nc(Nc3ccc(C)cc3)c3n[nH]cc3c2c1 [Example #244, (8-Methoxy-2H-pyrazolo[3,4-c]quinolin-4-yl)-p-tolyl-amine]"
7.00 to 8.00,6.00 to 7.00,"COc1cccc2c1nc(Nc1ccc(N3CCSCC3)cc1)c1n[nH]cc12 [Example #247, (6-Methoxy-2H-pyrazolo[3,4-c]quinolin-4-yl)-(4-thiomorpholin-4-yl-phenyl)-amine]"
